24 compounds from US10543212B2, “Substituted amines for treating cardiac diseases” (Cardurion Pharmaceuticals, LLC, priority 2017, dated 2020) can be followed below.

T1 sequence (Q13557 1-478 isoform Q13557-12): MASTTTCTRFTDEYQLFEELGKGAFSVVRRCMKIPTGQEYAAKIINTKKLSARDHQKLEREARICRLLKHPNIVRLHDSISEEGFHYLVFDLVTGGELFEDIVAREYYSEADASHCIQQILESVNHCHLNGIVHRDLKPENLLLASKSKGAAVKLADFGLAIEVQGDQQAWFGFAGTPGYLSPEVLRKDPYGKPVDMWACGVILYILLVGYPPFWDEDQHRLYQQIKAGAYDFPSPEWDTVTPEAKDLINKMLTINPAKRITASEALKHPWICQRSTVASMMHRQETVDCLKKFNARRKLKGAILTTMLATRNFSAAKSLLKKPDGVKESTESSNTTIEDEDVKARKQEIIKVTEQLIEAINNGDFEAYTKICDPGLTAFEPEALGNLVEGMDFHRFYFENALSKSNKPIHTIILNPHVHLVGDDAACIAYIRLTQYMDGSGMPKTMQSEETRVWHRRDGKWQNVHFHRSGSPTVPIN

The first assay concerns the target T1, Full-length, GST-tagged, human CaMKIIδ (Homo sapiens, UniProt Q13557).
T1 construct: Full-Length, Glutathione-S-Transferase(GST)-Tagged, Human CaMKIIδ was purchased from Carna Biosciences; purchased Carna Biosciences 02-111
Description: CaMKIIδ binding assay (TR-FRET with BODIPY-labeled probe ligand). The settings on record: CaMKIIδ binding assay, results of Table 2. Put shortly: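 TR-FRET probe-displacement binding: 0.5 nM GST-CaMKIIδ with 10 μg/mL calmodulin, 1 mM CaCl2, 0.21 nM Tb-anti-GST Ab and 300 nM BODIPY probe in HEPES pH 7.6 buffer. Eight-point 4-fold dilutions, 1 hr at room temperature. IC50 from logistic fit; 100% inhibition defined by 3 μM parent compound.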
In general terms: Time-resolved FRET reads energy transfer from a long-lived donor to a nearby acceptor.
One may read the IC50 as the concentration needed to halve the response being measured. Low readings indicate greater potency, high ones weaker potency. Turning to `COc1cc(C2CCCNC2)ccc1Nc1ncc(-c2ccc(C#N)c(O[C@@H](C)Cn3cnnn3)c2)cn1` (stereo partly drawn) [Example 472, 2-(((S)-1-(1H-tetrazol-1-yl)propan-2-yl)oxy)-4-(2-((2-methoxy-4-(piperidin-3-yl)phenyl)amino)pyrimidin-5-yl)benzonitrile], the IC50 is < 10 nM.

`COc1cc2c(cc1Nc1ncc(-c3ccc(Cl)c(O[C@@H](C)Cn4cnnn4)c3)cn1)CCN(C(=O)CN(C)C)C2` [Example 459, (S)-1-(6-((5-(3-((1-(1H-tetrazol-1-yl)propan-2-yl)oxy)-4-chlorophenyl)pyrimidin-2-yl)amino)-7-methoxy-3,4-dihydroisoquinolin-2(1H)-yl)-2-(dimethylamino)ethan-1-one]: the IC50 was < 10 nM. Compound `Cc1cnc(N2CCC(N3CCOCC3)CC2)cc1Nc1ncc(-c2ccc(C#N)c(O[C@@H](C)Cn3cnnn3)c2)cn1` [Example 509, (S)-2-((1-(1H-tetrazol-1-yl)propan-2-yl)oxy)-4-(2-((5-methyl-2-(4-morpholinopiperidin-1-yl)pyridin-4-yl)amino)pyrimidin-5-yl)benzonitrile] displayed an IC50 of 10 to 100 nM.

On to `COCC(C)N1CCC(n2cc(Nc3ncc(-c4ccc(Cl)c(O[C@@H](C)Cn5cnnn5)c4)cn3)c(C(F)(F)F)n2)CC1` (stereo partly drawn) [Example 553, 5-(3-(((S)-1-(1H-tetrazol-1-yl)propan-2-yl)oxy)-4-chlorophenyl)-N-(1-(1-(1-methoxypropan-2-yl)piperidin-4-yl)-3-(trifluoromethyl)-1H-pyrazol-4-yl)pyrimidin-2-amine], for which the concentration for half-maximal inhibition (IC50) is < 10 nM. Still for that read-out and setting: then `COc1cc2c(cc1Nc1ncc(-c3ccc(Cl)c(O[C@@H](C)Cn4cnnn4)c3)cn1)CCN(C1COC1)CC2` [Example 447, (S)-N-(5-(3-((1-(1H-tetrazol-1-yl)propan-2-yl)oxy)-4-chlorophenyl)pyrimidin-2-yl)-8-methoxy-3-(oxetan-3-yl)-2,3,4,5-tetrahydro-1H-benzo[d]azepin-7-amine], with < 10 nM.

The assay is the same for the next values; noted with them: CaMKIIδ binding assay; activity class per Table 2.
Consider `C[C@@H](Cn1cnnn1)Oc1cc(-c2cnc(Nc3cn(-c4ccc(=O)[nH]c4)nc3OCC(F)(F)F)nc2)ccc1Cl` [Example 902, (S)-5-(4-((5-(3-((1-(1H-tetrazol-1-yl)propan-2-yl)oxy)-4-chlorophenyl)pyrimidin-2-yl)amino)-3-(2,2,2-trifluoroethoxy)-1H-pyrazol-1-yl)pyridin-2(1H)-one], for which the IC50 is < 10 nM. The same measure, in the same setting: then `CC(Cn1cnnn1)Oc1cc(-c2cnc(Nc3cn(C4CCC(O)(CN5CCOCC5)CC4)nc3C(F)(F)F)nc2)ccc1Cl` [Example 918, trans-4-(4-((5-(3-(((S)-1-(1H-tetrazol-1-yl)propan-2-yl)oxy)-4-chlorophenyl)pyrimidin-2-yl)amino)-3-(trifluoromethyl)-1H-pyrazol-1-yl)-1-(morpholinomethyl)cyclohexan-1-ol], with < 10 nM.

The same assay, now with this note: Table 2; CaMKIIδ binding assay, activity given as class A/B/C.
In the case of `COc1ncc(N2CCN(C3CCOCC3)CC2)cc1Nc1ncc(-c2ccc(Cl)c(O[C@@H](C)Cn3cnnn3)c2)cn1` [Example 770, (S)-5-(3-((1-(1H-tetrazol-1-yl)propan-2-yl)oxy)-4-chlorophenyl)-N-(2-methoxy-5-(4-(tetrahydro-2H-pyran-4-yl)piperazin-1-yl)pyridin-3-yl)pyrimidin-2-amine], the IC50 is < 10 nM.

For `C[C@@H](Cn1cnnn1)Oc1cc(-c2cnc(Nc3cn([C@H]4CC[C@@H](N5CCC5)CC4)nc3C(F)(F)F)nc2)ccc1Cl` [Example 778, 5-(3-(((S)-1-(1H-tetrazol-1-yl)propan-2-yl)oxy)-4-chlorophenyl)-N-(1-(cis-4-(azetidin-1-yl)cyclohexyl)-3-(trifluoromethyl)-1H-pyrazol-4-yl)pyrimidin-2-amine], the IC50 is < 10 nM.

With `C[C@@H](Cn1cnnn1)Oc1cc(-c2cnc(Nc3cn(C4CCC(CC(=O)O)CC4)nc3C(F)(F)F)nc2)ccc1Cl` (stereo partly drawn) [Example 851, (S)-2-(4-(4-((5-(3-((1-(1H-tetrazol-1-yl)propan-2-yl)oxy)-4-chlorophenyl)pyrimidin-2-yl)amino)-3-(trifluoromethyl)-1H-pyrazol-1-yl)cyclohexyl)acetic acid], the half-inhibitory concentration (IC50) is ≥ 100 nM.

Take `C[C@@H](Cn1cnnn1)Oc1cc(-c2cnc(Nc3cn([C@@H](C)CO)nc3OCC(F)(F)F)nc2)ccc1Cl` [Example 775, (S)-2-(4-((5-(3-(((S)-1-(1H-tetrazol-1-yl)propan-2-yl)oxy)-4-chlorophenyl)pyrimidin-2-yl)amino)-3-(2,2,2-trifluoroethoxy)-1H-pyrazol-1-yl)propan-1-ol]: the IC50 was < 10 nM. Still for that read-out and setting: in the case of `C[C@@H](Cn1cnnn1)Oc1cc(-c2cnc(Nc3cn([C@H]4CC[C@@H](N5CCOCC5)CC4)nc3OCC(F)(F)F)nc2)ccc1C#N` [Example 818, 2-(((S)-1-(1H-tetrazol-1-yl)propan-2-yl)oxy)-4-(2-((1-(cis-4-morpholinocyclohexyl)-3-(2,2,2-trifluoroethoxy)-1H-pyrazol-4-yl)amino)pyrimidin-5-yl)benzonitrile] it was < 10 nM; in that of `C[C@@H](Cn1cnnn1)Oc1cc(-c2cnc(Nc3cc(N4CC(CN5CCOCC5)C4)ccc3F)nc2)ccc1C#N` [Example 762, (S)-2-((1-(1H-tetrazol-1-yl)propan-2-yl)oxy)-4-(2-((2-fluoro-5-(3-(morpholinomethyl)azetidin-1-yl)phenyl)amino)pyrimidin-5-yl)benzonitrile], < 10 nM. On the same count and under the same terms, then `CC(C)c1nn(C2CCC(=O)CC2)cc1Nc1ncc(-c2ccc(Cl)c(O[C@@H](C)Cn3cnnn3)c2)cn1` [Example 841, (S)-4-(4-((5-(3-((1-(1H-tetrazol-1-yl)propan-2-yl)oxy)-4-chlorophenyl)pyrimidin-2-yl)amino)-3-isopropyl-1H-pyrazol-1-yl)cyclohexan-1-one], with < 10 nM; and `CCn1cc(Nc2ncc(-c3ccc(C#N)c(O[C@@H](C)Cn4cnnn4)c3)cn2)c(OCC(F)(F)F)n1` [Example 764, (S)-2-((1-(1H-tetrazol-1-yl)propan-2-yl)oxy)-4-(2-((1-ethyl-3-(2,2,2-trifluoroethoxy)-1H-pyrazol-4-yl)amino)pyrimidin-5-yl)benzonitrile], with < 10 nM; and `COCCn1cc(Nc2ncc(-c3ccc(Cl)c(O[C@@H](C)Cn4cnnn4)c3)cn2)c(C(F)(F)F)n1` [Example 737, (S)-5-(3-((1-(1H-tetrazol-1-yl)propan-2-yl)oxy)-4-chlorophenyl)-N-(1-(2-methoxyethyl)-3-(trifluoromethyl)-1H-pyrazol-4-yl)pyrimidin-2-amine], with 10 to 100 nM.

The assay is the same for the next values; noted with them: Table 2; activity class for CaMKIIδ.
Compound `C[C@@H](Cn1cnnn1)Oc1cc(-c2cnc(Nc3cn(C4CN(C5COC5)C4)nc3C(F)(F)F)nc2)ccc1Cl` [Example 699, (S)-5-(3-((1-(1H-tetrazol-1-yl)propan-2-yl)oxy)-4-chlorophenyl)-N-(1-(1-(oxetan-3-yl)azetidin-3-yl)-3-(trifluoromethyl)-1H-pyrazol-4-yl)pyrimidin-2-amine] yielded an IC50 of 10 to 100 nM. `COc1cc2c(cc1Nc1ncc(-c3ccc(C#N)c(O[C@@H](C)Cn4cnnn4)c3)cn1)N(C(=O)C(F)(F)F)CCC2` [Example 585, (S)-2-((1-(1H-tetrazol-1-yl)propan-2-yl)oxy)-4-(2-((6-methoxy-1-(2,2,2-trifluoroacetyl)-1,2,3,4-tetrahydroquinolin-7-yl)amino)pyrimidin-5-yl)benzonitrile] came in with a concentration for half-maximal inhibition (IC50) of 10 to 100 nM. On the same count and under the same terms, then `COc1ccc(C(=O)N2CCN(C3COC3)CC2)cc1Nc1ncc(-c2ccc(Cl)c(O[C@@H](C)Cn3cnnn3)c2)cn1` [Example 589, (S)-(3-((5-(3-((1-(1H-tetrazol-1-yl)propan-2-yl)oxy)-4-chlorophenyl)pyrimidin-2-yl)amino)-4-methoxyphenyl) (4-(oxetan-3-yl)piperazin-1-yl)methanone], with 10 to 100 nM. On the same count and under the same terms, then `C[C@@H](Cn1cnnn1)Oc1cc(-c2cnc(Nc3cn(Cc4cccnc4)nc3C(F)(F)F)nc2)ccc1Cl` [Example 708, (S)-5-(3-((1-(1H-tetrazol-1-yl)propan-2-yl)oxy)-4-chlorophenyl)-N-(1-(pyridin-3-ylmethyl)-3-(trifluoromethyl)-1H-pyrazol-4-yl)pyrimidin-2-amine], with 10 to 100 nM; and `COc1cc(N2CCNCC2)ncc1Nc1ncc(-c2ccc(Cl)c(O[C@@H](C)Cn3cnnn3)c2)cn1` [Example 622, (S)-5-(3-((1-(1H-tetrazol-1-yl)propan-2-yl)oxy)-4-chlorophenyl)-N-(4-methoxy-6-(piperazin-1-yl)pyridin-3-yl)pyrimidin-2-amine], with < 10 nM; and `C[C@@H](Cn1cnnn1)Oc1cc(-c2cnc(Nc3cn(C4CN(C5CCOCC5)C4)nc3C(F)(F)F)nc2)ccc1Cl` [Example 698, (S)-5-(3-((1-(1H-tetrazol-1-yl)propan-2-yl)oxy)-4-chlorophenyl)-N-(1-(1-(tetrahydro-2H-pyran-4-yl)azetidin-3-yl)-3-(trifluoromethyl)-1H-pyrazol-4-yl)pyrimidin-2-amine], with < 10 nM. On the same count and under the same terms, then `C[C@@H](Cn1cnnn1)Oc1cc(-c2cnc(Nc3cn(CCN4CCOCC4)nc3C(F)(F)F)nc2)ccc1Cl` [Example 633, (S)-5-(3-((1-(1H-tetrazol-1-yl)propan-2-yl)oxy)-4-chlorophenyl)-N-(1-(2-morpholinoethyl)-3-(trifluoromethyl)-1H-pyrazol-4-yl)pyrimidin-2-amine], with 10 to 100 nM. As for `C[C@@H](Cn1cnnn1)Oc1cc(-c2cnc(Nc3cn(C4CCCN(C(=O)OC(C)(C)C)C4)nc3C(F)(F)F)nc2)ccc1Cl` (stereo partly drawn) [Example 599, tert-butyl 3-(4-((5-(3-(((S)-1-(1H-tetrazol-1-yl)propan-2-yl)oxy)-4-chlorophenyl)pyrimidin-2-yl)amino)-3-(trifluoromethyl)-1H-pyrazol-1-yl)piperidine-1-carboxylate], the IC50 is ≥ 100 nM.
